# What was measured:
# Type in all cases: functional
# [1] = Antiproliferative activity against human MIAPaCa2 cells assessed as growth inhibition at 10 uM after 48 hrs by SRB assay; details: MIA PaCa-2, 48 h, read-out: GI
# PC-3 = assay: Antiproliferative activity against human PC3 cells assessed as growth inhibition at 10 uM after 48 hrs by SRB assay; details: PC-3, 48 h, read-out: GI
# A-431 = assay: Antiproliferative activity against human A431 cells assessed as growth inhibition at 10 uM after 48 hrs by SRB assay; details: A-431, 48 h, read-out: GI
# HL-60 = assay: Antiproliferative activity against human HL60 cells assessed as growth inhibition at 10 uM after 48 hrs by SRB assay; details: HL-60, 48 h, read-out: GI
# T47D = assay: Antiproliferative activity against human T47D cells assessed as growth inhibition at 10 uM after 48 hrs by SRB assay; details: read-out: GI
# T98G = assay: Antiproliferative activity against human T98G cells assessed as growth inhibition at 10 uM after 48 hrs by SRB assay; details: read-out: GI
# A549 = assay: Antiproliferative activity against human A549 cells assessed as growth inhibition at 10 uM after 48 hrs by SRB assay; details: A549, 48 h, read-out: GI
# [2] = Antiproliferative activity against human NCI-H322 cells assessed as growth inhibition at 10 uM after 48 hrs by SRB assay; details: NCI-H322, 48 h, read-out: GI
SMILES,inhibition of growth at 10 µM [1] [%],inhibition of growth at 10 µM (PC-3) [%],inhibition of growth at 10 µM (A-431) [%],inhibition of growth at 10 µM (HL-60) [%],inhibition of growth at 10 µM (T47D) [%],inhibition of growth at 10 µM (T98G) [%],inhibition of growth at 10 µM (A549) [%],inhibition of growth at 10 µM [2] [%]
CCN(CC)c1ncnc2sc(Nc3ccccc3)nc12,9,19,12,31,27,49,48,39
Clc1ccc(Nc2nc3c(Cl)ncnc3s2)cc1,10,18,0,18,9,0,46,47
O=C(Nc1nc2c(Cl)ncnc2s1)c1ccccc1,15,21,0,21,32,23,29,37
Clc1ccc(Nc2nc3c(N4CCCCC4)ncnc3s2)cc1,1,2,22,21,8,45,57,63
c1ccc(Nc2nc3c(N4CCCCC4)ncnc3s2)cc1,17,2,22,22,31,42,54,41
CN(C)c1ncnc2sc(Nc3ccccc3)nc12,9,36,10,28,31,45,28,18
c1ccc(Nc2nc3c(N4CCNCC4)ncnc3s2)cc1,30,35,18,39,21,12,19,35
CN1CCN(c2ncnc3sc(Nc4ccccc4)nc23)CC1,10,29,19,12,13,36,19,39

# From ChEMBL document CHEMBL3085659, “Synthesis, antiproliferative and apoptosis-inducing activity of thiazolo[5,4-d]pyrimidines” (Eur J Med Chem, 2013)
